Reference: ChEMBL document CHEMBL4825768 (ACS Med Chem Lett, 2021)

Tests used:
[1] = molecular target: T1, GTPase KRas (Homo sapiens, UniProt P01116, G12C); experiment: (§1) Inhibition of GDP-bound KRAS G12C mutant (1 to 169 residues) (unknown origin) assessed as inhibition of SOS-mediated nucleotide exchange pretreated with KRAS for 5 mins followed by incubation with SOS (564 to 1049 residues) and GTP for 30 mins and later incubated with GST-tagged cRAF (1 to 149 residues) for 10 mins by AlphaLISA assay; format: single protein
[2] = molecular target: T1, GTPase KRas; experiment: as §1, with “20 hrs” for “5 mins”; format: single protein
[3] = system: GTPase KRas (Homo sapiens), P01116 [G12D]; experiment: Binding affinity to GDP-bound KRAS G12D mutant (unknown origin) assessed as bound fraction at 100 uM incubated for 20 hrs by RF-MS analysis relative to control
[4] = molecular target: T1, GTPase KRas; experiment: Inhibition of KRAS G12C mutant in human MIA PaCa-2 cells assessed as reduction in phosphorylated ERK1/2 level incubated for 2 hrs by MSD assay; format: cell-based

SMILES | IC50 [1] [nM] | IC50 [2] [nM] | Activity [3] [%] | IC50 [4] [nM]
Cc1ccnc(C(C)C)c1-n1c(=O)nc(N2CCN(C(=O)C3OC3C)C[C@@H]2C)c2cc(Cl)c(-c3ccccc3F)nc21 (some centres undefined) | 17800 | 96 | – | –
Cc1ccnc(C(C)C)c1-n1c(=O)nc(N2C[C@@H](C)N(C(=O)[C@H]3CO3)C[C@@H]2C)c2cc(Cl)c(-c3c(N)cccc3F)nc21 | 560 | 15 | 15.8 | –
COC(=O)/C=C/C(=O)N1CCN(c2nc(=O)n(-c3c(C)ccnc3C(C)C)c3nc(-c4ccccc4F)c(Cl)cc23)[C@@H](C)C1 | 95 | 26 | – | 61
CCOC(=O)[C@@H]1O[C@H]1C(=O)N1CCN(c2nc(=O)n(-c3c(C)ccnc3C(C)C)c3nc(-c4ccccc4F)c(Cl)cc23)[C@@H](C)C1 | 216 | 5 | 3.4 | 96
Cc1ccnc(C(C)C)c1-n1c(=O)nc(N2CCN(C(=O)[C@@H]3O[C@H]3CO)C[C@@H]2C)c2cc(Cl)c(-c3ccccc3F)nc21 | 6260 | 64 | – | –
Cc1ccnc(C(C)C)c1-n1c(=O)nc(N2CCN(C(=O)[C@@H]3O[C@H]3CN3CCCCC3)C[C@@H]2C)c2cc(Cl)c(-c3ccccc3F)nc21 | 1120 | 5 | – | –
Cc1ccnc(C(C)C)c1-n1c(=O)nc(N2CCN(C(=O)C=O)C[C@@H]2C)c2cc(Cl)c(-c3ccccc3F)nc21 | 610 | 39 | – | 711
Cc1ccnc(C(C)C)c1-n1c(=O)nc(N(C)C2CN(C(=O)C3CO3)C2)c2cc(Cl)c(-c3ccccc3F)nc21 (centres undefined) | 13800 | 227 | – | –
Cc1ccnc(C(C)C)c1-n1c(=O)nc(N2CC(NC(=O)C3CO3)C2)c2cc(Cl)c(-c3ccccc3F)nc21 (centres undefined) | 4410 | 18 | – | –
Cc1ccnc(C(C)C)c1-n1c(=O)nc(N2CCN(C(=O)[C@H]3CO3)C[C@@H]2C)c2cc(Cl)c(-c3ccccc3F)nc21 | 3780 | 27 | 3.4 | –
Cc1ccnc(C(C)C)c1-n1c(=O)nc(N2C[C@@H](C)N(C(=O)[C@H]3CO3)C[C@@H]2C)c2cc(Cl)c(-c3c(O)cccc3F)nc21 | 653 | 24 | 8.1 | –
